In patent publication US8168806B2, “Boron chelate complexes” (Chemetall GmbH, priority 2001, dated 2012):
Like-named read-outs stand apart in the source and are kept apart here.

Legend:
[1] = Qualitative solubility of the product of Example 3 in organic solvents; type: physicochemical; conditions: in propylene carbonate, γ-butyrolactone, 1,2-dimethyoxyethane, acetone and dimethylformamide
[2] = room temperature
[3] = room temperature; for Cond. (conductivity): at the concentration (mmole/g) printed in the cell to the left
[4] = thermogravimetry
[5] = 0.5 molar solution in γ-butyrolactone, nickel electrodes, FIG. 1
[6] = prior art statement; cited from earlier work
[7] = 5% solution in water, stirring for 2 hours, room temperature
[8] = in propylene carbonate; Xu and Angell 2001; cited from earlier work
[9] = in 1,2-DME (1,2-dimethoxyethane)

Structure (SMILES)	Solubility in words [1]	Solubility [2, 9] [mol/kg]	Solubility ([2]; in PC (propylene carbonate)) [mol/kg]	Solubility ([2]; in THF (tetrahydrofuran)) [mol/kg]	Solubility ([2]; in acetone) [mol/kg]	Solubility ([2]; in γ-BL (γ-butyrolactone)) [mol/kg]	Concn. column: solubility in words ([3]; in 1,2-DME)	Cond. (conductivity) ([3]; in 1,2-DME) [mS/cm]	Concn. column: solubility in words ([3]; in THF)	Cond. (conductivity) ([3]; in THF) [mS/cm]	Cond. (conductivity) ([3]; in γ-BL) [mS/cm]	TGA: decomposition starts at [4]	Electrochemical window (upper limit of stability, Li/Li+=0) [5]	Electrochemical stability / electrochemical window up to [6]	Degree of hydrolysis [7] [%]	Solubility [8] [M]
O=C1O[B-]2(OC1=O)OC(=O)c1ccccc1O2.[H+] [HSOB, hydrogen-(salicylato, oxalato)borate]	extremely soluble															
CC1O[B-]2(OC1=O)OC(=O)C(C)O2.[Li+] (stereo not shown) [LLB, Lithium-bis(lactato)borate]		<0.01	<0.01	<0.01	<0.01	0.02	insoluble	0	insoluble	0	0.01					
CC1O[B-]2(OC(=O)C(=O)O2)OC1=O.[Li+] (stereo not shown) [LLOB, Lithium-(lactato,oxalato)borate]		0.93	0.17	1.59	1.38	0.96		6.52		2.91	2.61	ca. 270 °C	ca. 5 V			
O=C1CC(=O)O[B-]2(O1)OC(=O)CC(=O)O2.[Li+] [LMB, Lithium-bis(malonato)borate]		0.003	0.02	0.09	0.03	0.13				0.01	1.65			up to 5 V	5	0.08
O=C1O[B-]2(OC1=O)OC(=O)C(=O)O2.[Li+] [LOB, Lithium-bis(oxalato)borate]		1.30	0.88	1.90	1.82	1.55					6.96			about 4.5 V	>50	
O=C1CC(=O)O[B-]2(O1)OC(=O)C(=O)O2.[Li+] [LOMB, Lithium-(malonato,oxalato)borate]		0.20	0.17	0.17	0.43	0.62				0.41	3.59				15	
O=C1O[B-]2(OC1=O)OC(=O)c1ccccc1O2.[Li+] [LOSB, Lithium-(oxalato,salicylato)borate]		0.43	1.50	1.21	0.51	0.98		4.17		3.17		ca. 210 °C				
